Read-outs that look alike come from different tables or passages of the source.
Experiments:
AURKA = biological target: T1, AURKA (Homo sapiens, UniProt O14965); type: cell-based
T1 construct: endogenous in cells; host or cells: Jurkat cells
T1 sequence (O14965 1-403): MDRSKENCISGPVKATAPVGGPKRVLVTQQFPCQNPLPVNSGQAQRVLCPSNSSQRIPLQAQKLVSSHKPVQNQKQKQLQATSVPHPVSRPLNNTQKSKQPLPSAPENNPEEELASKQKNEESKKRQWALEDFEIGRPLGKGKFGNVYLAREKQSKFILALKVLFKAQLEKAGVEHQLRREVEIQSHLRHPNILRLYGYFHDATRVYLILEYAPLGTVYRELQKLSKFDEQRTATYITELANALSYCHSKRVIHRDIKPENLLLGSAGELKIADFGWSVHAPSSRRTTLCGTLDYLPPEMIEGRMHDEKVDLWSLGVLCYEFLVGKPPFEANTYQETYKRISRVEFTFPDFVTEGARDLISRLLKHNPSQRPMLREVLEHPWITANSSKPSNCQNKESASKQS
Method in brief: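 AURKA degradation read by western blot: band signal, fluorescent or chemiluminescent, curve-fitted to derive DC50. Cells were Jurkat, plated at 1×10^6 cells/500 µL with compound, then lysed and blotted onto nitrocellulose, primary antibody overnight at 4°C.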

H82 cells = test: cells; type: cell-based; conditions: Homo sapiens
Method in brief: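 After 6 days' compound treatment at 37 °C (final DMSO 0.1%, RPMI1640/10% FBS), viable H82 cells were quantified by ATP-dependent CellTiter-Glo luminescence. Remaining activity was calculated against DMSO and medium wells, and a sigmoidal fit gave IC50.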

[1] = 100 nM compound, Jurkat cells, 24 h, Table 2
[2] = 1 µM compound, Jurkat cells, 24 h, Table 2
[3] = NCI-H82, H82 cells, 4000 cells/well, CellTiter-Glo, read-out: IC50 in H82 Cells
[4] = NCI-H82, read-out: IC50 in H82 Cells

O=C1CCN(c2ccc(N3CCC(O)(CN4CCN(c5ccc(Nc6ncc7c(n6)-c6ccc(Cl)cc6C(c6c(F)cccc6F)=NC7)cc5)CC4)CC3)nc2)C(=O)N1 [Compound A264]
Percentage of AURKA Degradation Induced by 100 nM Compound in Jurkat Cells (AURKA; [1]): +++ (Degradation > 70%)
Percentage of AURKA Degradation Induced by 1 µM Compound in Jurkat Cells (AURKA; [2]): +++ (Degradation > 70%)
IC50 (H82 cells; [3]): < 1 µM

O=C1CCN(c2ccc(N3CCC4(CCN(C(=O)C56CC(Nc7ncc8c(n7)-c7ccc(Cl)cc7C(c7c(F)cccc7F)=NC8)(C5)C6)CC4)CC3)nc2)C(=O)N1 [Compound A265]
Percentage of AURKA Degradation Induced by 100 nM Compound in Jurkat Cells (AURKA; [1]): + (Degradation ≤ 30%)
Percentage of AURKA Degradation Induced by 1 µM Compound in Jurkat Cells (AURKA; [2]): + (Degradation ≤ 30%)
IC50 (H82 cells; [3]): < 1 µM

O=C1CCN(c2ccc(N3CC(N4CCN(Cc5ccc(Nc6ncc7c(n6)-c6ccc(Cl)cc6C(c6c(F)cccc6F)=NC7)cc5)C(=O)C4)C3)nc2)C(=O)N1 [Compound A267]
Percentage of AURKA Degradation Induced by 100 nM Compound in Jurkat Cells (AURKA): ++ (key: +: Degradation ≤ 30%; ++: 30% < Degradation ≤ 70%; +++: Degradation > 70%)
Percentage of AURKA Degradation Induced by 1 µM Compound in Jurkat Cells (AURKA): +++ (key: +: Degradation ≤ 30%; ++: 30% < Degradation ≤ 70%; +++: Degradation > 70%)
IC50 (H82 cells; [4]): < 1 µM

CP(C)(=O)c1ccc2c(c1)C(c1c(F)cccc1F)=NCc1cnc(Nc3ccc(N4CCN(C5CCN(c6ccc(N7CCC(=O)NC7=O)cn6)CC5)CC4=O)cc3)nc1-2 [Compound A268]
Percentage of AURKA Degradation Induced by 100 nM Compound in Jurkat Cells (AURKA; [1]): +++ (Degradation > 70%)
Percentage of AURKA Degradation Induced by 1 µM Compound in Jurkat Cells (AURKA; [2]): +++ (Degradation > 70%)
IC50 (H82 cells; [3]): 1 to 10 µM

CP(C)(=O)c1ccc2c(c1)C(c1c(F)cccc1F)=NCc1cnc(Nc3ccc(N4CC(CN5CCN(c6ccc(N7CCC(=O)NC7=O)cn6)CC5)C4)cc3)nc1-2 [Compound A269]
Percentage of AURKA Degradation Induced by 100 nM Compound in Jurkat Cells (AURKA; [1]): +++ (Degradation > 70%)
Percentage of AURKA Degradation Induced by 1 µM Compound in Jurkat Cells (AURKA; [2]): +++ (Degradation > 70%)
IC50 (H82 cells; [3]): 1 to 10 µM

O=C1CCN(c2ccc(N3CCC(C(=O)N4CCN(C56CC(Nc7ncc8c(n7)-c7ccc(Cl)cc7C(c7c(F)cccc7F)=NC8)(C5)C6)C(=O)C4)CC3)nc2)C(=O)N1 [Compound A270]
Percentage of AURKA Degradation Induced by 100 nM Compound in Jurkat Cells (AURKA; [1]): +++ (Degradation > 70%)
Percentage of AURKA Degradation Induced by 1 µM Compound in Jurkat Cells (AURKA; [2]): +++ (Degradation > 70%)
IC50 (H82 cells; [3]): < 1 µM

O=C1CCN(c2ccc(N3CCC(C4CCN(c5ccc(Nc6ncc7c(n6)-c6ccc(Cl)cc6C(c6c(F)cccc6F)=NC7)cc5)CC4)CC3)nc2)C(=O)N1 [Compound A271]
Percentage of AURKA Degradation Induced by 100 nM Compound in Jurkat Cells (AURKA; [1]): ++ (30% < Degradation ≤ 70%)
Percentage of AURKA Degradation Induced by 1 µM Compound in Jurkat Cells (AURKA; [2]): +++ (Degradation > 70%)
IC50 (H82 cells; [3]): < 1 µM

O=C1CCN(c2ccc(N3CCC(F)(CN4CCN(C56CC(Nc7ncc8c(n7)-c7ccc(Cl)cc7C(c7c(F)cccc7F)=NC8)(C5)C6)C(=O)C4)CC3)nc2)C(=O)N1 [Compound A272]
Percentage of AURKA Degradation Induced by 100 nM Compound in Jurkat Cells (AURKA): +++ (key: +: Degradation ≤ 30%; ++: 30% < Degradation ≤ 70%; +++: Degradation > 70%)
Percentage of AURKA Degradation Induced by 1 µM Compound in Jurkat Cells (AURKA): +++ (key: +: Degradation ≤ 30%; ++: 30% < Degradation ≤ 70%; +++: Degradation > 70%)
IC50 (H82 cells; [4]): < 1 µM

O=C1CCN(c2ccc(N3CCC(C4CCN(C(=O)C56CC(Nc7ncc8c(n7)-c7ccc(Cl)cc7C(c7c(F)cccc7F)=NC8)(C5)C6)CC4)CC3)nc2)C(=O)N1 [Compound A273]
Percentage of AURKA Degradation Induced by 100 nM Compound in Jurkat Cells (AURKA; [1]): +++ (Degradation > 70%)
Percentage of AURKA Degradation Induced by 1 µM Compound in Jurkat Cells (AURKA; [2]): +++ (Degradation > 70%)
IC50 (H82 cells; [3]): < 1 µM

O=C1CCN(c2ccc(N3CC(C(=O)N4CCN(c5ccc(Nc6ncc7c(n6)-c6ccc(Cl)cc6C(c6c(F)cccc6F)=NC7)cc5)CC4)C3)nc2)C(=O)N1 [Compound A274]
Percentage of AURKA Degradation Induced by 100 nM Compound in Jurkat Cells (AURKA; [1]): +++ (Degradation > 70%)
Percentage of AURKA Degradation Induced by 1 µM Compound in Jurkat Cells (AURKA; [2]): +++ (Degradation > 70%)
IC50 (H82 cells; [3]): < 1 µM

O=C1CCN(c2ccc(N3CC(N4CCN(C(=O)C56CC(Nc7ncc8c(n7)-c7ccc(Cl)cc7C(c7c(F)cccc7F)=NC8)(C5)C6)CC4)C3)nc2)C(=O)N1 [Compound A275]
Percentage of AURKA Degradation Induced by 100 nM Compound in Jurkat Cells (AURKA; [1]): +++ (Degradation > 70%)
Percentage of AURKA Degradation Induced by 1 µM Compound in Jurkat Cells (AURKA; [2]): +++ (Degradation > 70%)
IC50 (H82 cells; [3]): < 1 µM

O=C1CCN(c2ccc(N3CC(N4CCN(Cc5ccc(Nc6ncc7c(n6)-c6ccc(Cl)cc6C(c6c(F)cccc6F)=NC7)cc5)CC4=O)C3)nc2)C(=O)N1 [Compound A276]
Percentage of AURKA Degradation Induced by 100 nM Compound in Jurkat Cells (AURKA): ++ (key: +: Degradation ≤ 30%; ++: 30% < Degradation ≤ 70%; +++: Degradation > 70%)
Percentage of AURKA Degradation Induced by 1 µM Compound in Jurkat Cells (AURKA): ++ (key: +: Degradation ≤ 30%; ++: 30% < Degradation ≤ 70%; +++: Degradation > 70%)
IC50 (H82 cells; [4]): < 1 µM

O=C1CCN(c2ccc(N3CCN(C(=O)C4CCN(c5ccc(Nc6ncc7c(n6)-c6ccc(Cl)cc6C(c6c(F)cccc6F)=NC7)cc5)CC4)CC3)nc2)C(=O)N1 [Compound A277]
Percentage of AURKA Degradation Induced by 100 nM Compound in Jurkat Cells (AURKA; [1]): +++ (Degradation > 70%)
Percentage of AURKA Degradation Induced by 1 µM Compound in Jurkat Cells (AURKA; [2]): +++ (Degradation > 70%)
IC50 (H82 cells; [3]): < 1 µM

O=C1CCN(c2ccc(N3CC(CN4CCN(C(=O)C56CC(Nc7ncc8c(n7)-c7ccc(Cl)cc7C(c7c(F)cccc7F)=NC8)(C5)C6)CC4)C3)nc2)C(=O)N1 [Compound A279]
Percentage of AURKA Degradation Induced by 100 nM Compound in Jurkat Cells (AURKA; [1]): +++ (Degradation > 70%)
Percentage of AURKA Degradation Induced by 1 µM Compound in Jurkat Cells (AURKA; [2]): +++ (Degradation > 70%)
IC50 (H82 cells; [3]): < 1 µM

O=C1CCN(c2ccc(N3CCC(C(=O)N4CCN(C56CC(Nc7ncc8c(n7)-c7ccc(Cl)cc7C(c7nccs7)=NC8)(C5)C6)C(=O)C4)CC3)nc2)C(=O)N1 [Compound A280]
Percentage of AURKA Degradation Induced by 100 nM Compound in Jurkat Cells (AURKA; [1]): +++ (Degradation > 70%)
Percentage of AURKA Degradation Induced by 1 µM Compound in Jurkat Cells (AURKA; [2]): +++ (Degradation > 70%)
IC50 (H82 cells; [3]): < 1 µM

O=C1CCN(c2ccc(N3CCN(CC4(O)CN(c5ccc(Nc6ncc7c(n6)-c6ccc(Cl)cc6C(c6c(F)cccc6F)=NC7)cc5)C4)CC3)nc2)C(=O)N1 [Compound A281]
Percentage of AURKA Degradation Induced by 100 nM Compound in Jurkat Cells (AURKA; [1]): +++ (Degradation > 70%)
Percentage of AURKA Degradation Induced by 1 µM Compound in Jurkat Cells (AURKA; [2]): +++ (Degradation > 70%)
IC50 (H82 cells; [3]): < 1 µM

O=C1CCN(c2ccc(N3CCC(N4CCN(c5ccc(Nc6ncc7c(n6)-c6ccc(Cl)cc6C(c6nccs6)=NC7)cc5)C(=O)C4)CC3)nc2)C(=O)N1 [Compound A282]
Percentage of AURKA Degradation Induced by 100 nM Compound in Jurkat Cells (AURKA): +++ (key: +: Degradation ≤ 30%; ++: 30% < Degradation ≤ 70%; +++: Degradation > 70%)
Percentage of AURKA Degradation Induced by 1 µM Compound in Jurkat Cells (AURKA): +++ (key: +: Degradation ≤ 30%; ++: 30% < Degradation ≤ 70%; +++: Degradation > 70%)
IC50 (H82 cells; [4]): < 1 µM

O=C1CCN(c2ccc(N3CCC(CN4CC(=O)N(C56CC(Nc7ncc8c(n7)-c7ccc(Cl)cc7C(c7c(F)cccc7F)=NC8)(C5)C6)C(=O)C4)CC3)nc2)C(=O)N1 [Compound A283]
Percentage of AURKA Degradation Induced by 100 nM Compound in Jurkat Cells (AURKA; [1]): +++ (Degradation > 70%)
Percentage of AURKA Degradation Induced by 1 µM Compound in Jurkat Cells (AURKA; [2]): +++ (Degradation > 70%)
IC50 (H82 cells; [3]): < 1 µM

O=C1CCN(c2ccc(N3CCN(C(=O)C4CCN(C56CC(Nc7ncc8c(n7)-c7ccc(Cl)cc7C(c7c(F)cccc7F)=NC8)(C5)C6)C(=O)C4)CC3)nc2)C(=O)N1 (stereo not drawn) [Compound A284]
Percentage of AURKA Degradation Induced by 100 nM Compound in Jurkat Cells (AURKA; [1]): +++ (Degradation > 70%)
Percentage of AURKA Degradation Induced by 1 µM Compound in Jurkat Cells (AURKA; [2]): ++ (30% < Degradation ≤ 70%)
IC50 (H82 cells; [3]): < 1 µM
